According to US20240335429A1, “MOLECULAR GLUE AND SALL4 DEGRADER” (National University of Singapore, priority 2021, published 2024):

Experiments:
SALL4A = target: T1, SALL4A (Homo sapiens, UniProt Q9UJQ4); assay: Immunoblot of endogenous SALL4A in SNU-398 HCC cells; assay type: cell-based; settings: SNU-398 cells, 24 h, immunoblot quantification
T1 construct: endogenous in cells; host or cells: SNU-398 HCC cells
T1 sequence (Q9UJQ4 1-1053): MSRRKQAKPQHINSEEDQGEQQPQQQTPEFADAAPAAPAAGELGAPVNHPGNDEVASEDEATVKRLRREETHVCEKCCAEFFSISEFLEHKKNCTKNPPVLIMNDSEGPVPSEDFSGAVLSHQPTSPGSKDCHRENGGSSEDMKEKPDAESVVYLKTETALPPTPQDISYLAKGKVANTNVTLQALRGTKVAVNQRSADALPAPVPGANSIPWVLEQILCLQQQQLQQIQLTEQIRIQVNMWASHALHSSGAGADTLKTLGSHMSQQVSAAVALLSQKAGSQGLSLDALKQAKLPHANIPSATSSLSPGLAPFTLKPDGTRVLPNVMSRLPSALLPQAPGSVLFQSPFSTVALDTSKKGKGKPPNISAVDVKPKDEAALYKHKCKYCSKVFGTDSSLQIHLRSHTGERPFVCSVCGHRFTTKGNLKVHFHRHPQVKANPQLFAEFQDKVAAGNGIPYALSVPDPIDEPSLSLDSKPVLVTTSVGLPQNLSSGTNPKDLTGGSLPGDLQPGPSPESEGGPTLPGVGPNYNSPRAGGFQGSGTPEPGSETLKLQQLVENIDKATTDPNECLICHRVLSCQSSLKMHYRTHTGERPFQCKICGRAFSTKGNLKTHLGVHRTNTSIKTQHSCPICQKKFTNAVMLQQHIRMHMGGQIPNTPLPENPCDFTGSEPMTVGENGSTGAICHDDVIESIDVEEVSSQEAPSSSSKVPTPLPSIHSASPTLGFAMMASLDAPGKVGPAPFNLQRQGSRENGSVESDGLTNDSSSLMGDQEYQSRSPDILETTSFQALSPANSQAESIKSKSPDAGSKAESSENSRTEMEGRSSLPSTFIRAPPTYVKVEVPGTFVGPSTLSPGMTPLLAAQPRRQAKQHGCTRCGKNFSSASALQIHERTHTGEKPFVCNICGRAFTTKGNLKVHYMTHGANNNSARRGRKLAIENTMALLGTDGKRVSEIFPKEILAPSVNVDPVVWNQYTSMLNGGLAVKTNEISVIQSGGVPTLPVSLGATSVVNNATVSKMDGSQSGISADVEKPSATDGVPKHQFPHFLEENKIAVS
Experimental: (§1) RIPA buffer containing freshly added protease inhibitors (2 mM PMSF) and protease inhibitor cocktail was used for cell lysis. The lysed cells were incubated for 10 min on ice and subsequently centrifuged at 4° C. for 10 min at 14,000 rpm. The protein concentrations of cell lysates were assessed using Bradford Assay as per manufacturer's instructions. The samples were denatured using 4× Sample buffer at 95° C. for 5 min. The samples were size resolved using polyacrylamide gel (8%) and Mini-PROTEAN Tetra Cell module. The size-resolved proteins were transferred onto PVDF via electroblotting using Mini Trans-Blot® module. The membrane was blocked using 5% BSA in TBST. The membrane was incubated with appropriate primary antibody (overnight) and secondary antibody (1 h). Immobilon Crescendo Western HRP substrate was used for signal development and images were acquired using darkroom development techniques.
A head-to-head comparison between the newly discovered SALL4 degrader QE-18-WG07 and IMiDs (Pomalidomide and Thalidomide) was performed. […]

RBBP4 = assay: Immunoblot of RBBP4 in SNU-398 cells; assay type: cell-based, human; settings: 16 μM, 24 h
Experimental: as §1
26S proteasome complex and neddylation was inhibited by cotreating MG132 at 1 and 3 μM and MLN4924 at 10 and 15 μM for 18 h, 20 h, 24 h or 48 h with desired concentrations of QE-18-WG07 in SNU-398, H661 and SNU-182 cells. After 18 h or 24 h of treatment, cells were then lysed and subjected to further protein extraction and immunoblotting by following the protocol in Example 4. For caspase glo assay, 20 h of cotreatment was performed by following the protocol in Example 5. […]

[1] = HCC mouse xenograft, tolerability (body, spleen, liver weight); assay type: in vivo
Experimental: Animals were maintained, and all animal work were performed following the protocols approved by the Institutional Animal Care and Use Committee. The SNU-398 cell line was cultured as described above in ‘Cell Culture’. To establish the SNU-398 xenografts, NOD.Cg−Prkdc^sc^i^dIl2rg^tm^1^Wjl/Sz (NSG) female mice (6-8 weeks) were anesthetized using 2% isoflurane USP, and 0.5×10^6 SNU-398 cells in 200 μL of 1:1 RPMI:Matrigel were subcutaneously injected to the mouse flanks. When tumors were palpable, mice were randomized to receive either QE treatment or vehicle containing 5% DMSO, 12.5% Ethanol, and 12.5% Cremophor EL in 70% 1× PBS. Freshly prepared vehicle or QE-18-WG07 was administered by intraperitoneal (IP) injection, once daily (qd) at 10 mg/kg in the pilot study and 5, 15, and 45 mg/kg for dose-expansion studies. Before each drug injection, mouse weight and tumor volume were monitored. Mice were euthanized once tumors reached more than 1.5 cm in diameter. The tumors were harvested, imaged and snap-frozen for storage at −80° C. until later use.

COc1ccccc1NC(=O)Nc1ccc([N+](=O)[O-])cc1O [QE-18-WG07]
DC50 (SALL4A): ~4.23 µM | Dmax (SALL4A): 57% | effect on the level of RBBP4 (RBBP4): no observable effect | tolerability (animal weight preservation, normal spleen weight) ([1]; 10 mg/kg daily, 10 days): well tolerated | weight loss in mice compared to vehicle ([1]; 10 mg/kg q.d., 10 days): did not induce significant weight loss | tolerability (negligible weight loss, normal spleen and liver weight) ([1]; 45 mg/kg daily, 2 weeks): well tolerated | weight loss in mice ([1]; 5, 15 and 45 mg/kg q.d., 15 days): did not induce significant weight loss
